Measured values reported in patent publication US20080039410A1, “Inositol 1,4,5-Trisphosphate Receptor Mutants and Uses Thereof” (priority 2004, published 2008).
“Also recorded” adds a separate entry of the source.

Key:
Assay type in all cases: cell-based, rat
S2− InsP3R-1 = test: Potentiation of CCh-induced Ca2+ release after PKA activation (forskolin), S2− InsP3R-1 constructs in DT-40 3ko cells; conditions: low affinity indicator Fura-2-FF
S2+ InsP3R-1 [1] = test: Potentiation of CCh-induced Ca2+ release after PKA activation (forskolin), S2+ InsP3R-1 constructs in DT-40 3ko cells; conditions: for effect of forskolin treatment on CCh-induced [Ca^2+]i peak: 20 μM forskolin, threshold CCh; for Ca^2+ release after PKA activation: S2 + InsP3R-1 constructs, Table 2
Protocol: DT-40 cells lacking all three InsP3 receptor subtypes DT-40 3ko were transfected using electroporation, 350 V and 950 μF. 2×10^7 cells were co-transfected with 25 μg of the InsP3R cDNA, 25 μg of the muscarinic type 3 (M3) receptor, and 4 μg of the red fluorescent protein plasmid pHcRed1-N1. Cells were incubated with DNA in 500 μL of Optimem media on ice for 10 minutes. The cell/DNA mixture was electroporated, incubated on ice for 30 minutes, brought up to 5 ml with Optimem and placed in a 5% C02 incubator at 39° C. for 5 hours. The cells were then centrifuged and resuspended in 12 ml of complete RPMI media. Transfection efficiency was typically ˜20%. Experiments were performed within 32 hours of transfection.
(§1) Transfected DT-40 3ko cells were washed once in a HEPES-buffered physiological saline solution (HEPES-PSS) containing (in mM) 5.5 glucose, 137 NaCl, 0.56 MgCl2, 4.7 KCl, 1 Na2HPO4, 10 HEPES (pH 7.4), 1.2 CaCl2 and 1% w/v Bovine Serum Albumin. Cells were then resuspended in BSA HEPES-PSS with 1 μM Fura-2 (AM), placed on a 15 mm glass coverslip in a low volume perfusion chamber (Warner Instruments) and allowed to adhere for 30 minutes at room temperature. Cells were perfused continually for 10 minutes with HEPES-PSS before experimentation to allow Fura-2 de-esterification. A field of cells for each experiment was chosen that contained a wide range of transfection efficiency based upon the intensity of red fluorescence emitted when excited at 560 nm. [Ca^2+]i imaging was performed essentially as previously described using an inverted epifluorescence Nikon microscope with a 40× oil immersion objective lens (numerical aperture, 1.3). Cells were excited alternately with light at 340 and 380 nm (±10 mn bandpass filters, Chroma) using a monochrometer (TILL Photonics). Fluorescence images were captured and digitized with a digital camera driven by TILL Photonics software. Images were captured every 2 seconds with an exposure of 35 ms and no binning. 340/380 ratio images were calculated online and stored immediately to hard disk.
(§2) The effects of treatment were determined by normalizing the peak change in fluorescence ratio by stimulation following forskolin or 8-Br cGMP exposure to that of stimulation in control HEPES-PSS. Thus, pooled data represents a normalized fold increase over control for the treated trial. Two tailed heteroscedastic t-tests with P values<0.05 were considered to have statistical significance.
Experiments were performed in DT-40 3ko cells transfected with S2^+ InsP3R-1. Since there are no reports of Gαq coupled receptors expressed in DT-40 cells, initial experiments were performed eliciting [Ca^2+]i changes by stimulating the endogenous B cell receptor with α-IgM antibody. […] Thus, in all further experiments, DT-40 3ko cells were co-transfected with the M3 receptor, and HcRed to facilitate identification of transfected cells (inset FIG. 1). Stimulation of M3 receptors with the muscarinic agonist carbachol (CCh), provided a convenient means of stimulating [Ca^2+]i changes, presumably through Gαq-induced activation of phospholipase C and production of InsP3. […] The potentiation was most marked when threshold elevations in [Ca^2+]i were evoked by the initial exposure to CCh and therefore only cells in which the initial CCh treatment evoked a Δ 340/380 ratio of<0.2 ratio units were included for analysis. […] [Ca^2+]i changes were never evoked by CCh treatment in cells transfected with only M3 cDNA in the absence of InsP3R or likewise InsP3R with no M3 cDNA.
The effects of treatment were determined by normalizing the peak change in fluorescence ratio by stimulation following forskolin or 8-Br-cGMP exposure to that of stimulation in control HEPES-PSS. Thus, pooled data represent a normalized fold increase over control for the treated trial. In all cases where statistical significance is indicated, two-tailed heteroscedastic t tests were performed. […]

S2+ InsP3R-1 [2] = test: Potentiation of CCh-induced Ca2+ release after PKG activation (8-Br cGMP), S2+ InsP3R-1 constructs in DT-40 3ko cells; conditions: for effect of 8-Br cGMP treatment on CCh-induced Ca^2+ release: 10 μM 8-Br cGMP, threshold CCh; for Ca^2+ release after PKG activation: S2 + InsP3R-1 constructs, Table 2
Protocol: as §1, §2
Similar experiments were performed to assess the effects on Ca^2+ release of phosphorylating InsP3R-1 with PKG. Cells transfected with S2^+ InsP3R-1 together with M3 receptor and HcRed were stimulated with low, threshold concentrations of CCh (25-50 nM) followed by a 10 min treatment with 10 μM 8-Br cGMP, a specific activator of PKG [48]. […] In a similar fashion to PKA activation, this was manifested as an increase in the CCh-induced initial peak (FIG. 4A and pooled data FIG. 4E).
The effects of treatment were determined by normalizing the peak change in fluorescence ratio by stimulation following forskolin or 8-Br-cGMP exposure to that of stimulation in control HEPES-PSS. Thus, pooled data represent a normalized fold increase over control for the treated trial. In all cases where statistical significance is indicated, two-tailed heteroscedastic t tests were performed. P values<0.05 were considered to indicate statistical significance and are denoted by an asterisk in the figures.
Despite these differences, experiments were performed to define further the phosphorylation sites important for regulation of Ca^2+ release by PKG. […] In contrast, in cells expressing S2+SE no effect on CCh-induced Ca^2+ release following activation of PKG was observed (FIG. 23C and pooled data in FIG. 23D).

Substance | fold potentiation of CCh-induced Ca^2+ release by forskolin (S2− InsP3R-1) [fold] | effect of forskolin treatment on CCh-induced [Ca^2+]i peak (S2+ InsP3R-1 [1]) | Ca^2+ release after PKA activation (S2+ InsP3R-1 [1]) | effect of 8-Br cGMP treatment on CCh-induced Ca^2+ release (S2+ InsP3R-1 [2]) | Ca^2+ release after PKG activation (S2+ InsP3R-1 [2])
S2−WT: wild-type rat type-1 InsP3 receptor, peripheral short S2− splice variant (SEQ ID NO: 17) | ~4.5 |  |  |  | 
S2+ES: S2+ InsP3R-1, long splice variant with S1589E |  | marked potentiation; also recorded: markedly potentiated | Enhanced | markedly potentiated | enhanced
S2+SE: phosphomimetic S2+ InsP3R-1, long splice variant of S1755E |  | no further potentiation | No change | no effect; also recorded: no potentiation | no change
